Data on 21 compounds can be found in patent publication US8993757B2, “N-piperidin-4-yl derivatives” (Merck Sharp & Dohme B.V., priority 2011, dated 2015).

SMILES strings stand for the structures. Where “and” joins values, the source holds several entries; their conditions need not be identical. Equal values may be shown once.

This test deals with T1, human FSH receptor (Homo sapiens, UniProt P23945).
T1 construct: expressed in transfected cells; host or cells: CHO cells, cotransfected with a CRE/promotor firefly luciferase reporter
T1 sequence (P23945 18-695): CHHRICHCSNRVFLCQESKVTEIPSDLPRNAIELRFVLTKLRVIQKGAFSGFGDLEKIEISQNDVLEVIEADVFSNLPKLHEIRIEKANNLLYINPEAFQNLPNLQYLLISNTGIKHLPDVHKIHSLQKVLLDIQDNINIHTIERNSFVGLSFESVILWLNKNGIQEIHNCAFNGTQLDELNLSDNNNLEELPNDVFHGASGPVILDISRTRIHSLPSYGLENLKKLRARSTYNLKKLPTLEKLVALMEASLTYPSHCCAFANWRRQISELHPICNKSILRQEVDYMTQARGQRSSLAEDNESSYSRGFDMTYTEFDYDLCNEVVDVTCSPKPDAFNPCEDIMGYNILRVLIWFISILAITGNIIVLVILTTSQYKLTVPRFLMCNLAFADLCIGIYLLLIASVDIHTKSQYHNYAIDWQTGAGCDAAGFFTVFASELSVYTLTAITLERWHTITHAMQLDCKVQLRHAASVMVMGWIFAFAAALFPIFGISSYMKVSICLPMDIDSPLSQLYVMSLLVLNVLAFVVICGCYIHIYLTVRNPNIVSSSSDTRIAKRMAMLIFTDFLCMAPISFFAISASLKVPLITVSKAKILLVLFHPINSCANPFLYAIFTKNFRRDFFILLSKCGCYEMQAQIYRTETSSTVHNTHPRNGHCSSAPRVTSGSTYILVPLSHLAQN
As to the kind of experiment: Antagonistic activity at the human FSH receptor expressed in CHO cells (CRE-luciferase reporter). It counts as cell-based. The note with it: CHO cells stably transfected with human FSH receptor and CRE/firefly luciferase reporter; 4 hours incubation; read-out: pIC50 (negative logarithm of the IC50 value) (converted). The method, then:
The FSHR antagonists of the invention have pIC50 values higher than 6 in said assay. The preferred compounds of the invention have pIC50 values higher than 8.
Antagonistic activity of the compounds at the human FSH receptor was determined in Chinese Hamster Ovary (CHO) cells stably transfected with the human FSH receptor and cotransfected with a cAMP responsive element (CRE)/promotor directing the expression of a firefly luciferase reporter gene. […] The cells (7,500 cells/well of a 384 well plate) were incubated in Dulbecco′ minimal essential F12 modified medium (Invitrogen), supplemented with 1 μg/ml bovine insulin, 5 μg/ml human apo-transferrin, 100 U/ml penicillin G and 100 μg/ml streptomycin with the test compounds (concentration between 0.316 nM and 10.0 μM) in duplicate together with […] (which, at this concentration in the absence of test compound, induces 80% of the maximal luciferase stimulation) in a humidified atmosphere (95%) at 5-7% CO2 and 37° C. The final concentration of DMSO was 1%. After 4 hours of incubation, plates were allowed to adjust to room temperature for 1 hour. Then, SteadyLite (Perkin Elmer) solution was added to the wells and cells were allowed to lyse for at least 1 hour at room temperature. Subsequently, luciferase activity was measured in a luminescence counter. The signal is expressed as counts per second (cps). The IC50 (concentration of test compound causing half-maximal (50%) inhibition of the maximally attainable inhibition of the luciferase stimulation by the compound) and efficacy of the compounds were determined using the software program MathIQ (version 2.3, ID Business Solutions Limited).
One may read the IC50 as the point on the concentration scale where inhibition reaches its midpoint. With `COc1cc(OCC2CC2)cc(C(=O)NCC2CCN(c3ncnc(-c4cccc(C(=O)NCC(F)F)c4)n3)CC2)c1` [Example 32G, 3-(cyclopropylmethoxy)-N-((1-(4-(3-(2,2-difluoroethylcarbamoyl)phenyl)-1,3,5-triazin-2-yl)piperidin-4-yl)methyl)-5-methoxybenzamide], the IC50 is 10 to 100 nM.
Take `COc1cc(OCC2CC2)cc(C(=O)NCC2CCN(c3ncnc(-c4cccc(C(=O)NCCO)c4)n3)CC2)c1` [Example 32H, 3-(cyclopropylmethoxy)-N-((1-(4-(3-(2-hydroxyethylcarbamoyl)phenyl)-1,3,5-triazin-2-yl)piperidin-4-yl)methyl)-5-methoxybenzamide]: the half-inhibitory concentration (IC50) is 10 to 100 nM.
Turning to `COc1cc(OCC2CC2)cc(C(=O)NCC2CCN(c3ncnc(-c4cccc(C(=O)Nc5nccs5)c4)n3)CC2)c1` [Example 32I, 3-(cyclopropylmethoxy)-5-methoxy-N-((1-(4-(3-(thiazol-2-ylcarbamoyl)phenyl)-1,3,5-triazin-2-yl)piperidin-4-yl)methyl)benzamide], the IC50 is 10 to 100 nM.
In the case of `COc1cc(OCC2CC2)cc(C(=O)NCC2CCN(c3ccnc(-c4cccc(-n5cc(C)cn5)c4)n3)CC2)c1` [Example 33A, 3-(cyclopropylmethoxy)-5-methoxy-N-((1-(2-(3-(4-methyl-1H-pyrazol-1-yl)phenyl)pyrimidin-4-yl)piperidin-4-yl)methyl)benzamide] it was 10 to 100 nM and < 10 nM.
On to `COc1cc(OCC2CC2)cc(C(=O)NCC2CCN(c3ccnc(-c4ccc5oncc5c4)n3)CC2)c1` [Example 33B, N-((1-(2-(benzo[d]isoxazol-5-yl)pyrimidin-4-yl)piperidin-4-yl)methyl)-3-(cyclopropylmethoxy)-5-methoxybenzamide], for which the IC50 was 10 to 100 nM.
As to `COc1cc(OCC2CC2)cc(C(=O)NCC2CCN(c3ccnc(-c4ccc(F)c(C#N)c4)n3)CC2)c1` [Example 33C, N-((1-(2-(3-cyano-4-fluorophenyl)pyrimidin-4-yl)piperidin-4-yl)methyl)-3-(cyclopropylmethoxy)-5-methoxybenzamide], the IC50 was 10 to 100 nM.
For the compound `COc1cc(OCC2CC2)cc(C(=O)NCC2CCN(c3ccnc(-c4cccc(-n5ncc(C(=O)O)c5C)c4)n3)CC2)c1` [Example 33D, 1-(3-(4-(4-((3-(cyclopropylmethoxy)-5-methoxybenzamido)methyl)piperidin-1-yl)pyrimidin-2-yl)phenyl)-5-methyl-1H-pyrazole-4-carboxylic acid], the IC50 was 10 to 100 nM.
As to `COc1cc(OCC2CC2)cc(C(=O)NCC2CCN(c3ccnc(-c4cccc(-n5cccn5)n4)n3)CC2)c1` [Example 33E, N-((1-(2-(6-(1H-pyrazol-1-yl)pyridin-2-yl)pyrimidin-4-yl)piperidin-4-yl)methyl)-3-(cyclopropylmethoxy)-5-methoxybenzamide], the concentration for half-maximal inhibition (IC50) is 10 to 100 nM.
On to `COc1cc(OCC2CC2)cc(C(=O)NCC2CCN(c3ncnc(-c4ccc(O)c(C#N)c4)n3)CC2)c1` [Example 34, N-((1-(4-(3-cyano-4-hydroxyphenyl)-1,3,5-triazin-2-yl)piperidin-4-yl)methyl)-3-(cyclopropylmethoxy)-5-methoxybenzamide], for which the IC50 was 10 to 100 nM.
Take `COc1cc(OCC2CC2)cc(C(=O)NC2CC23CCN(c2ccnc(-c4cccc(-n5cccn5)c4)n2)CC3)c1` (stereo not drawn) [Example 35, N-(6-(2-(3-(1H-pyrazol-1-yl)phenyl)pyrimidin-4-yl)-6-azaspiro[2.5]octan-1-yl)-3-(cyclopropylmethoxy)-5-methoxybenzamide]: the IC50 was 10 to 100 nM.
With `COc1cc(OCC2CC2)cc(C(=O)NC(C)C2CCN(c3ncnc(-c4cccc(-c5cc[nH]n5)c4)n3)CC2)c1` (stereo not drawn) [Example 37, N-(1-(1-(4-(3-(1H-pyrazol-3-yl)phenyl)-1,3,5-triazin-2-yl)piperidin-4-yl)ethyl)-3-(cyclopropylmethoxy)-5-methoxybenzamide], the concentration for half-maximal inhibition (IC50) is less than 10 nM.
`COc1cc(OCC2CC2)cc(C(=O)NC(C)C2CCN(c3ccnc(-c4cccc(C#N)c4)n3)CC2)c1` (stereo not drawn) [Example 38, N-(1-(1-(2-(3-cyanophenyl)pyrimidin-4-yl)piperidin-4-yl)ethyl)-3-(cyclopropylmethoxy)-5-methoxybenzamide]: the IC50 was less than 10 nM.
In the case of `COc1cc(OCC2CC2)cc(C(=O)NC(C)C2CCN(c3ccnc(-c4cccc(-n5cccn5)c4)n3)CC2)c1` (stereo not drawn) [Example 39, N-(1-(1-(2-(3-(1H-pyrazol-1-yl)phenyl)pyrimidin-4-yl)piperidin-4-yl)ethyl)-3-(cyclopropylmethoxy)-5-methoxybenzamide] it was less than 10 nM; in that of `COc1cc(OCC2CC2)cc(C(=O)NCC2CCN(c3ncnc(-c4cccc(-c5ncc[nH]5)c4)n3)CC2)c1` [Example 40, N-((1-(4-(3-(1H-imidazol-2-yl)phenyl)-1,3,5-triazin-2-yl)piperidin-4-yl)methyl)-3-(cyclopropylmethoxy)-5-methoxybenzamide 2,2,2-trifluoroacetate], less than 10 nM; in that of `COc1cc(OCC2CC2)cc(C(=O)NCC2CCN(c3nc(-c4cccc(-c5ncc[nH]5)c4)ncc3F)CC2)c1` [Example 41, N-((1-(2-(3-(1H-imidazol-2-yl)phenyl)-5-fluoropyrimidin-4-yl)piperidin-4-yl)methyl)-3-(cyclopropylmethoxy)-5-methoxybenzamide 2,2,2-trifluoroacetate], less than 10 nM.
Then `COc1cc(NC(=O)C2CCN(c3ccnc(-c4cccc(-n5cccn5)c4)n3)CC2)cc(OCc2ccc(F)cc2)c1` [Example 42, 1-(2-(3-(1H-pyrazol-1-yl)phenyl)pyrimidin-4-yl)-N-(3-(4-fluorobenzoxy)-5-methoxyphenyl)piperidine-4-carboxamide], with 10 to 100 nM; and `COc1cc(NC(=O)C2CCN(c3ccnc(-c4cccc(-n5cccn5)c4)n3)CC2)cc(OCc2cc(C)on2)c1` [Example 43, 1-(2-(3-(1H-pyrazol-1-yl)phenyl)pyrimidin-4-yl)-N-(3-methoxy-5-((5-methylisoxazol-3-yl)methoxy)phenyl)piperidine-4-carboxamide], with less than 10 nM; and `COc1cc(NC(=O)C2CCN(c3ccnc(-c4cccc(-n5cccn5)c4)n3)CC2)cc(OC(C)C)c1` [Example 44, 1-(2-(3-(1H-pyrazol-1-yl)phenyl)pyrimidin-4-yl)-N-(3-isopropoxy-5-methoxyphenyl)piperidine-4-carboxamide], with 10 to 100 nM.
Regarding `COc1cc(NC(=O)C2CCN(c3ccnc(-c4cccc(-n5cccn5)c4)n3)CC2)cc(OCC2CCCCC2)c1` [Example 45, 1-(2-(3-(1H-pyrazol-1-yl)phenyl)pyrimidin-4-yl)-N-(3-(cyclohexylmethoxy)-5-methoxyphenyl)piperidine-4-carboxamide], the IC50 was 10 to 100 nM.
For `Cc1cc(NC(=O)C2CCN(c3ccnc(-c4cccc(-n5cccn5)c4)n3)CC2)cc(OC(F)(F)F)c1` [Example 46, 1-(2-(3-(1H-pyrazol-1-yl)phenyl)pyrimidin-4-yl)-N-(3-methyl-5-(trifluoromethoxy)phenyl)piperidine-4-carboxamide], the half-inhibitory concentration (IC50) is 10 to 100 nM.
Turning to `COc1cc(NC(=O)C2CCN(c3ccnc(-c4cccc(-n5cccn5)c4)n3)CC2)cc(OC)c1` [Example 51, 1-(2-(3-(1H-pyrazol-1-yl)phenyl)pyrimidin-4-yl)-N-(3,5-dimethoxyphenyl) piperidine-4-carboxamide], the half-maximal inhibitory concentration (IC50) was less than 10 nM.
